Columns and labels:
Wheat = assay: Greenhouse study for weed control, wheat; type: in vivo; conditions: Glyphosate 0.375 lb/acre; AMS 17 lb/100 gal; NIS, AQ 284, AQ 268 […] v/v; INTERLOCK 4 fl oz/acre
Protocol: (§1) A greenhouse study was conducted to test the efficacy of the AQ 284 combination water conditioning adjuvant and drift reduction composition compared to the commercial standard (INTERLOCK). Greenhouse research was conducted with individual plants growing in 3×3×3 inch pots. Greenhouse treatments were applied with a track sprayer using an 8002 E single nozzle applying 20 gpa.

Corn = assay: Greenhouse study for weed control, corn; type: in vivo; conditions: Glyphosate 0.375 lb/acre; AMS 17 lb/100 gal; NIS, AQ 284, AQ 268 […] v/v; INTERLOCK 4 fl oz/acre
Protocol: as §1

Corn, Sunflower, Wheat = assay: Greenhouse study for weed control, average of corn, sunflower and wheat; type: in vivo; conditions: Glyphosate 0.375 lb/acre; AMS 17 lb/100 gal; NIS, AQ 284, AQ 268 […] v/v; INTERLOCK 4 fl oz/acre
Protocol: as §1

Sunflower = assay: Greenhouse study for weed control, sunflower; type: in vivo; conditions: Glyphosate 0.375 lb/acre; AMS 17 lb/100 gal; NIS, AQ 284, AQ 268 […] v/v; INTERLOCK 4 fl oz/acre
Protocol: as §1

[1] = Lecithin addition to sulfuric acid, urea sulfate and AQ 216 (lecithin stability); type: physicochemical; conditions: for Notes (result of lecithin addition): on addition
Text: Lecithin is known to be unstable in a sulfuric acid environment. […] For each reaction with urea sulfate and AQ 216, the urea sulfate was mixed thoroughly or AQ 216 was mixed thoroughly, before the addition of the lecithin composition.

[2] = lecithin composition AIRLINK 50 mL
[3] = lecithin composition LI 700 50 mL
[4] = lecithin composition LIBERATE 50 mL

SMILES | Wheat % Control 18 Days After Application (Wheat) [%] | Corn % Control 18 Days After Application (Corn) [%] | Average % Control 18 Days After Application (Corn, Sunflower, Wheat) [%] | Sunflower % Control 18 Days After Application (Sunflower) [%] | reaction with lecithin compositions ([1]; 50 mL of each of the lecithin compositions, equivalent amount of sulfuric acid (3 mL)) | Time 1 hour [1, 2] | Time 12 Hours [1, 2] | Notes (result of lecithin addition) ([1]; lecithin composition AIRLINK 50 mL, 3 mL sulfuric acid or 6 mL urea sulfate / AQ 216) | Time 1 hour [1, 3] | Time 12 Hours [1, 3] | Notes (result of lecithin addition) [1, 3] | Time 1 hour [1, 4] | Time 12 Hours [1, 4] | Notes (result of lecithin addition) [1, 4]
O=C(O)CNCP(=O)(O)O [Glyphosate, N-phosphonomethylglycine] | 15.0 | 10.0 | 13.3 | 15.0 | – | – | – | – | – | – | – | – | – | –
O=S(=O)(O)O [Sulfuric Acid] | – | – | – | – | forming a precipitate | More precipitate | More precipitate | Dark Precipitate | More precipitate | More precipitate | Dark Precipitate | More precipitate | More precipitate | Dark Precipitate

Reference: patent publication US20260083125A1, “METHODS FOR MANAGING HERBICIDE VAPORIZATION” (AgQuam R&D, LLC, priority 2016, published 2026)
